In patent US7276501B2, “6-(4-substituted-anilino)pyrimidine derivatives, method for preparation thereof and antiviral pharmaceutical composition comprising the same” (B & C Biopharm, priority 2002, dated 2007):

Target: T1, HCV RNA polymerase (RNA dependent RNA polymerase, NS5B) (Hepatitis C virus genotype 1b, UniProt P26663)
T1 construct: the NS5B region (1773 bps) was amplified by PCR and cloned into pVLHIS, a baculovirus transfer vector; (His)6; made in house; host or cells: Sf9 insect cells (recombinant baculovirus, pVLHIS-NS5B)
Test: Inhibitory effect on activity of recombinant HCV RNA polymerase (NS5B) in vitro
Type: biochemical, HCV-1b type HCV
Protocol: Test of Inhibitory Effect on Activity of HCV RNA Polymerase (RNA Dependent RNA Polymerase, NS5B) in vitro
The following in vitro experiments were conducted to examine the inhibitory effect of the compounds according to the present invention on the activity of HCV RNA dependent RNA Polymerase.
HCV cDNA was obtained from the blood of HCV-1b type HCV patient and the NS5B region (1773 bps) was amplified by PCR and cloned into pVLHIS, a baculovirus transfer vector, to prepare a recombinant transfer vector. The prepared transfer vector and the wild-type AcNPV vector were cotransfected into Sf9 insect cell line to yield a recombinant baculovirus containing the histidine-tagged recombinant vector pVLHIS-NS5B. Sufficiently cultured insect cells were infected with the resulting recombinant baculovirus and cultured in Grace's medium containing 10% FBS for 3 to 4 days. The culture broth was centriftiged to obtain only the infected cells. The cells were washed three times with PBS and resuspended in binding buffer [50 mM Na-phosphate (pH 8.0), 30 mM NaCl, 10 mM imidazole, 1 mM DTT, 10% glycerol, 1% NP40], sonicated and the clearized lysate was obtained. Recombinant NS5B was purified by affinity column chromatography using a Ni-NTA His bind resin (Novagen) to produce pure NS5B protein. The (His)6-tagged NS5B was bound to Ni-NTA resin and washed the binding buffer containing 50 mM imidazole. The bound NS5B was eluted with the binding buffer containing imidazole in a step-gradient manner (100-300 mM). The NS5B protein fractions were dialyzed against buffer [50 mM Tris-HCl, 50 mM NaCl, 1 mM DTT, […], 10% glycerol], followed by at −70° C. in a small aliquot.
The 3′UTR cDNA (220 bp) of HCV was obtained from 1b HCV RNA of the blood of a hepatitis C patient by PCR and cloned into pcDNA3 vector. Linearized DNA fragment containing the 3′-UTR was prepared using the restriction enzyme Eco RI and used as a template for in vitro transcription using T7 RNA ploymerase to prepare RNA fragment containing 3′-UTR.
In vitro inhibitory activity of the compounds of the present invention on recombinant HCV RNA polymerase was measured as follows.
A streptavidin-coated well plate was prepared suitable for the sample to be examined. 25 μl of 2× assay buffer [50 mM Tris-Cl (pH 7.5), 100 mM NaCl, 10 mM MgCl2, 20 mM KCl, 1 mM EDTA, 1 mM DTT] and 10 μl of purified HCV RNA polymerase 200 ng and 3′-UTR template RNA were added to each well. Then, 5 μl of the sample to be examined was added to have final concentrations of 10, 1, 0.1 and 0.01 μg/mL. Finally, 10 μl of a reactant solution containing DIG-(digoxigenin)-UTP, biotin-UTP, ATP, CTP, GTP, and UTP as a nucleotide for the ploymerase reaction with the RNA template of HCV 3′-UTR RNA was added to each well. The reaction mixture was incubated at 22° C. for 60 minutes. By the action of HCV polymerase, newly generated RNAs including UTP conjugated with biotin and DIG were copied and these new RNAs could bind to streptavidin coated on the well by biotin-conjugated UTP. After completion of the reaction, the plate was washed three times with 200 μl of a washing buffer (pH 7.0, Roche Co.) to remove unreacted substances and impurities. Then, 100 μl of the secondary antibody anti-DIG-POD (peroxidase, Roche Co.) was added to each well and incubated at 37° C. for 1 hour. Again, the well plate was washed with the washing buffer. Finally, 100 μl of ABTS^R (Roche Co.) as a POD substrate was added to each well and reacted for 15 to 30 minutes. The optical density (OD) was measured using an ELISA reader (Bio-Tek instrument Co.) at 405 nm. The inhibitory effect on the activity of HCV polymerase was calculated by subtracting the OD of the positive control without the sample.

T1 sequence (P26663 2420-3010): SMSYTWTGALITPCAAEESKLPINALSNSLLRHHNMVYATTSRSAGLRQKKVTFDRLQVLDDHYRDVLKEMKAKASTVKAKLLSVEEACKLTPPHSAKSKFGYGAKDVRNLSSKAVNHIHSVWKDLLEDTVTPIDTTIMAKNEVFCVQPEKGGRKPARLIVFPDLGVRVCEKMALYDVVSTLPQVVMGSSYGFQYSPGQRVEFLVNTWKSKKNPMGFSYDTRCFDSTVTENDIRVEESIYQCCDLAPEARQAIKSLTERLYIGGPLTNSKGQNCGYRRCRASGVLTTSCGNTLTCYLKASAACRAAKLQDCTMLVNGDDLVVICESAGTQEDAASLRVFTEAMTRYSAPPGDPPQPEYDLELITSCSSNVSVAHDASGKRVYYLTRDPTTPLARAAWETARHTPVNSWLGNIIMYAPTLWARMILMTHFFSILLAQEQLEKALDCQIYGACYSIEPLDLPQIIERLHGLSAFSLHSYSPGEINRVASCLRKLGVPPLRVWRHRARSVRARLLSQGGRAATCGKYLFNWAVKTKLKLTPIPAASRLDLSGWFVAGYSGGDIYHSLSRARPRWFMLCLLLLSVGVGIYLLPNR

SMILES	Inhibition of activity of HCV RNA polymerase (%) (0.01 μg/mL)	Inhibition of activity of HCV RNA polymerase (%) (0.1 μg/mL)	Inhibition of activity of HCV RNA polymerase (%) (1 μg/mL)	Inhibition of activity of HCV RNA polymerase (%) (10 μg/mL)
CSc1nc(Nc2ccc(N3CCOCC3)cc2)cc(N2CCN(C(=O)OC(C)C)CC2)n1 [Example 1, 2-methylthio-6-[4-(4-morpholino)anilino]-4-[4-(isopropoxycarbonyl)piperazin-1-yl]pyrimidine]	29	55	81	99
CSc1nc(Nc2ccc(N3CCOCC3)cc2)cc(N2CCN(C(=O)c3cccnc3)CC2)n1 [Example 2, 2-methylthio-6-[4-(4-morpholino)anilino]-4-[4-[(3-pyridyl)carbonyl]piperazin-1-yl]pyrimidine]	15	30	62	98
CSc1nc(Nc2ccc(N3CCOCC3)cc2)cc(N2CCN(C(=O)c3ccncc3)CC2)n1 [Example 3, 2-methylthio-6-[4-(4-morpholino)anilino]-4-[4-[(4-pyridyl)carbonyl]piperazin-1-yl]pyrimidine]	23	53	73	93
CSc1nc(Nc2ccc(N3CCOCC3)cc2)cc(N2CCN(CC(=O)O)CC2)n1 [Example 4, 2-methylthio-6-[4-(4-morpholino)anilino]-4-[4-(carboxymethyl)piperazin-1-yl]pyrimidine]	27	52	65	94
